Assay results published in patent US6815460B2, “Process for preparing prodrugs of benzenesulfonamide-containing cox-2 inhibitors” (Pharmacia Corporation, priority 1996, dated 2004).
Where a name gives a salt, the structure may show the parent alone.

Key:
[1] = In vitro conversion of prodrugs by S9 liver fractions; type: in vitro ADME; settings: purified S9 fractions (3 mg/ml), compound 10 ug/ml, 37° C., pH 7.2, 90 minutes, HPLC
Method: IN VITRO CONVERSION OF PRODRUGS
The conversion of the prodrugs by S9 liver fractions was determined by the following method. The S9 liver-fraction suspension (IIAM) was thawed and the suspension was stirred by vortex. The suspension was mixed with 12M urea at 1:7, v:v, (yielding […] final concentration) and further stirred by vortex. The S9 suspension solution was partially purified by solid phase extraction (Vac-Elut apparatus:C18 columns (Varian #1210-2001)) eluting with acetonitrile. The fractions were mixed by vortex and concentrated to dryness under nitrogen (no heat). The fractions were resuspended in 100 μl acetonitrile:phosphate buffer (8.3 mM, pH 7.2) (20:80).
The compounds were dissolved in water (0.2 ml, 10 ug/ml) and incubated at 37° C. (pH 7.2, 90 minutes) with purified S9 fractions (0.2 ml, 3 mg/ml). Conversion of the prodrug to the active COX-2 inhibitor was followed by HPLC (Beckmann System Gold, Novapak C18 column (3.9×150 mm), acetonitrile:phosphate buffer (8.3 mM, pH 7.2) (20:80-40:60), UV detection 240 nm). Quantitation of the conversion of the prodrug was determined by measurement of integrated HPLC peak area.

Male Sprague-Dawley rats [2] = assay: Rat Carrageenan-induced Analgesia Test; type: in vivo; settings: dosed orally, inhibition of hyperalgesic foot withdrawal, three hours after carrageenan
Method: Rat Carrageenan-induced Analgesia Test
The rat carrageenan analgesia test was performed with materials, reagents and procedures essentially as described by Hargreaves, et al., (Pain, 32, 77 (1988)). Male Sprague-Dawley rats were treated as previously described for the Carrageenan Foot Pad Edema test. Three hours after the injection of the carrageenan, the rats were placed in a special plexiglass container with a transparent floor having a high intensity lamp as a radiant heat source, positionable under the floor. After an initial twenty minute period, thermal stimulation was begun on either the injected foot or on the contralateral uninjected foot. A photoelectric cell turned off the lamp and timer when light was interrupted by paw withdrawal. The time until the rat withdraws its foot was then measured. The withdrawal latency in seconds was determined for the control and drug-treated groups, and percent inhibition of the hyperalgesic foot withdrawal determined.

Male Sprague-Dawley rats [3] = assay: Rat Carrageenan Foot Pad Edema Test; type: in vivo; settings: dosed orally one hour before carrageenan, foot volume three hours after carrageenan
Method: Rat Carrageenan Foot Pad Edema Test
The carrageenan foot edema test was performed with materials, reagents and procedures essentially as described by Winter, et al., (Proc. Soc. Exp. Biol. Med., 111, 544 (1962)). Male Sprague-Dawley rats were selected in each group so that the average body weight was as close as possible. Rats were fasted with free access to water for over sixteen hours prior to the test. The rats were dosed orally (1 mL) with compounds suspended in vehicle containing 0.5% methylcellulose and 0.025% surfactant, or with vehicle alone. One hour later a subplantar injection of 0.1 mL of 1% solution of carrageenan/sterile 0.9% saline was administered and the volume of the injected foot was measured with a displacement plethysmometer connected to a pressure transducer with a digital indicator. Three hours after the injection of the carrageenan, the volume of the foot was again measured. The average foot swelling in a group of drug-treated animals was compared with that of a group of placebo-treated animals and the percentage inhibition of edema was determined (Otterness and Bliven, Laboratory Models for Testing NSAIDs, in Non-steroidal Anti-Inflammatory Drugs, (J. Lombardino, ed. 1985)).

| SMILES | Metabolism of Prodrugs: Parent (% remaining) [1] [%] | melting point [°C] | also measured |
| --- | --- | --- | --- |
| CCCC(=O)NS(=O)(=O)c1ccc(-c2c(-c3ccccc3)noc2C)cc1 [Example 25, N-[[4-(5-Methyl-3-phenylisoxazol-4-yl)phenyl]sulfonyl]butanamide, Sodium Salt] | 0.8 | – | ANALGESIA % Inhibition @ 10 mg/kg body weight (Male Sprague-Dawley rats [2]): 33%; RAT PAW EDEMA % Inhibition @ 30 mg/kg body weight (Male Sprague-Dawley rats [3]): 60% |
| CC(=O)NS(=O)(=O)c1ccc(-c2c(-c3cccc(F)c3)noc2C)cc1 [Example 14, N-[[4-[3-(3-Fluorophenyl)-5-methylisoxazol-4-yl]phenyl]sulfonyl]acetamide, Sodium Salt] | 63.4 | – | ANALGESIA % Inhibition @ 10 mg/kg body weight (Male Sprague-Dawley rats [2]; Sodium Salt): 41%; RAT PAW EDEMA % Inhibition @ 30 mg/kg body weight (Male Sprague-Dawley rats [3]; Sodium Salt): 65% |
| CCC(=O)NS(=O)(=O)c1ccc(-c2c(-c3ccccc3)noc2C)cc1 [Example 18, N-[[4-(5-Methyl-3-phenylisoxazol-4-yl]phenyl]sulfonyl]propanamide, Sodium Salt] | 3.3 | – | – |
| CC(=O)NS(=O)(=O)c1ccc(-c2c(-c3cccc(F)c3)noc2C)cc1 [Example 13, N-[[4-[3-(3-Fluorophenyl)-5-methylisoxazol-4-yl]phenyl]sulfonyl]acetamide] | – | 144 to 145 | ANALGESIA % Inhibition @ 10 mg/kg body weight (Male Sprague-Dawley rats [2]): 61.5%; RAT PAW EDEMA % Inhibition @ 30 mg/kg body weight (Male Sprague-Dawley rats [3]): 58% |
| CCC(=O)NS(=O)(=O)c1ccc(-n2cc(C(F)(F)F)nc2-c2cccnc2C)cc1 [Example 84, N-[[4-[2-(2-Methylpyridin-3-yl)-4-trifluoromethylimidazol-1-yl]phenyl]sulfonyl]propanamide] | – | 217 to 218 | – |
| CC(=O)[N-]S(=O)(=O)c1ccc(-n2cc(C(F)(F)F)nc2-c2cncc(C)c2)cc1.[Na+] [Example 4, N-[[4-[2-(5-Methylpyridin-3-yl)-4-(trifluoromethyl)-1H-imidazol-1-yl]phenyl]sulfonyl]acetamide, Sodium Salt] | – | 278 to 281 | – |
| COc1ccc(-c2cc(C(F)F)nn2-c2ccc(S(=O)(=O)NC(C)=O)cc2)cc1F [Example 46, N-[[4-[3-(Difluoromethyl)-5-(3-fluoro-4-methoxyphenyl)-1H-pyrazol-1-yl]phenyl]sulfonyl]acetamide] | – | 173 to 175 | – |
| CCC(=O)NS(=O)(=O)c1ccc(-n2nc(C(F)(F)F)cc2-c2ccc(Cl)cc2)cc1 [Example 33, N-[[4-[5-(4-Chlorophenyl)-3-(trifluoromethyl)-1H-pyrazol-1-yl]phenyl]sulfonyl]propanamide] | – | 77.9 to 85.1 | – |
| CCCC(=O)NS(=O)(=O)c1ccc(-n2cc(C(F)(F)F)nc2-c2cccnc2C)cc1 [Example 9, N-[[4-[2-(2-Methylpyridin-3-yl)-4-(trifluoromethyl)-1H-imidazol-1-yl]phenyl]sulfonyl]butanamide] | – | 250 to 252 | – |
